Results from article PMC9133112, “The structural basis of Cdc7-Dbf4 kinase dependent targeting and phosphorylation of the MCM2-7 double hexamer” (Nature Communications, 2022).

Biological target: T1, DDK (Dbf4-dependent Cdc7 kinase, Cdc7-Dbf4) (Saccharomyces cerevisiae, UniProt P06243)
T1 construct: full-length Cdc7-Dbf4, expressed in budding yeast, MBP tag cleaved with PreScission, lambda phosphatase treated; with DDK kinase regulatory subunit DBF4
Experiment: inhibition of MCM2-7 phosphorylation by DDK (gel)
Format: biochemical
Settings: substrate MCM2-7

T1 sequence (P06243 whole entry): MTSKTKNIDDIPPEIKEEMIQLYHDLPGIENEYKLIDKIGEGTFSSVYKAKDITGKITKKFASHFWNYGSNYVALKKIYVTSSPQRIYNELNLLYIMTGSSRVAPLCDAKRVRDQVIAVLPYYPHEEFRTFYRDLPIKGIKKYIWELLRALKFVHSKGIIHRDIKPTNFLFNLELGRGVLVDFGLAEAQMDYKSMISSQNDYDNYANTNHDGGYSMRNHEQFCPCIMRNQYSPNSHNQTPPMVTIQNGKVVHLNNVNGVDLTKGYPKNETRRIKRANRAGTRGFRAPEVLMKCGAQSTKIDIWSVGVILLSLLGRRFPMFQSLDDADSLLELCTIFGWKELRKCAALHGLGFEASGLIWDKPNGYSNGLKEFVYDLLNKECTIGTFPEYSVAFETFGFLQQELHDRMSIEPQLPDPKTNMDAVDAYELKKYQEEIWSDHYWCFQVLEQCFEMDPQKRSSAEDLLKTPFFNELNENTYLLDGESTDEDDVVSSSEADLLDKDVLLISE
T1 sequence (P32325 whole entry partner): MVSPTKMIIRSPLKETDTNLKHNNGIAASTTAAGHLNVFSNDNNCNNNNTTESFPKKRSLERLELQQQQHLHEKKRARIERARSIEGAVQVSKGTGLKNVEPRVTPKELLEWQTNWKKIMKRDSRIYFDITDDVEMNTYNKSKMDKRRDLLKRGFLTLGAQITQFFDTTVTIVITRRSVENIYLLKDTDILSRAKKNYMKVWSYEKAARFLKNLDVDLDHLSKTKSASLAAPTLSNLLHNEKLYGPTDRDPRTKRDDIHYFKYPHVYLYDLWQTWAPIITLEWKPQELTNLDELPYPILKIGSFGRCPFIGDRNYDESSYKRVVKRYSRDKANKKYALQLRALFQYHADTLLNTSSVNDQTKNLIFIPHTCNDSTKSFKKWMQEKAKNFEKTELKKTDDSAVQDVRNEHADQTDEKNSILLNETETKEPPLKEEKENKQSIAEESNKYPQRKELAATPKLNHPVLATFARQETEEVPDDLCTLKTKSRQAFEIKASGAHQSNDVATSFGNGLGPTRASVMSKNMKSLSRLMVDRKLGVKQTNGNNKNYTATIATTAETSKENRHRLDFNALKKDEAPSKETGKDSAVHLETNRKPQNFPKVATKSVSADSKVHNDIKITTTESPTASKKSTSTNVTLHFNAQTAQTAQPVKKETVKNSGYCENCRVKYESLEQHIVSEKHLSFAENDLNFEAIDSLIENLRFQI

Structure (SMILES): O=C1NCCc2[nH]c(-c3ccncc3)cc21 [PHA767491]
- inhibition: DDK phosphorylation of MCM2-7 is inhibited by the human Cdc7 inhibitors: XL413, PHA767491 and TAK931

Structure (SMILES): Cc1[nH]ncc1-c1cc2nc([C@@H]3CC4CCN3CC4)[nH]c(=O)c2s1 [TAK931]
- inhibition: DDK phosphorylation of MCM2-7 is inhibited by the human Cdc7 inhibitors: XL413, PHA767491 and TAK931

Structure (SMILES): O=c1[nH]c([C@@H]2CCCN2)nc2c1oc1ccc(Cl)cc12 [XL413]
- inhibition: DDK phosphorylation of MCM2-7 is inhibited by the human Cdc7 inhibitors: XL413, PHA767491 and TAK931
